The source of these data is US9567322B2, “Substituted tetrahydropyrans and method of use” (AbbVie S.á.r.l., priority 2014, dated 2017).

In this experiment the target is T1, F508delCFTR (Homo sapiens, UniProt P13569, DEL508-508).
T1 construct: expressed in transfected cells; host or cells: CFBE41o- (CFBE41o-F508delCFTR-HRP), doxycycline-inducible
Put plainly: Cell Surface Expression-Horse Radish Peroxidase (CSE-HRP) assay. In kind it is cell-based. Particulars: CFBE41o-F508delCFTR-HRP cells; for EC50: cell surface expression, luminescence readout, 18-24 hours at 33° C., highest concentration tested 20 μM, 8-point curve; for Maximum % activity: maximum at any tested concentration, normalized to on-plate positive control (3 μM) and DMSO. The source says: Cell Surface Expression-Horse Radish Peroxidase (CSE-HRP) Assay:
A cellular assay for measuring the F508delCFTR cell surface expression after correction with test compounds was developed in human lung derived epithelial cell line (CFBE41o-) (Veit G et al, (2012) Mol Biol Cell. 23(21): 4188-4202). This was achieved by expressing the F508delCFTR mutation along with a horseradish peroxidase (HRP) in the fourth exofacial loop and then measuring the HRP activity using luminescence readout from these cells, CFBE41o-F508delCFTR-HRP, that were incubated overnight with the test corrector compounds. Briefly, for this primary assay, the CFBE41o-F508delCFTR-HRP cells were plated in 384-well plates (Greiner Bio-one; Cat 781080) at 4,000 cells/well along with 0.5 μg/mL doxycycline to induce the F508delCFTR-HRP expression and further incubated at 37° C., 5% CO2 for 72 hours. The test compounds were then added at the required concentrations and further incubated for 18-24 hours at 33° C. The highest concentration tested was 20 μM with an 8-point concentration response curve using a 3-fold dilution. Three replicate plates were run to determine one EC50. All plates contained negative controls (dimethyl sulfoxide, DMSO) and positive controls (3 μM of 3-[(2R,4R)-4-({[1-(2,2-difluoro-1,3-benzodioxol-5-yl)cyclopropyl]carbonyl}amino)-7-methoxy-3,4-dihydro-2H-chromen-2-yl]benzoic acid) as well as on-plate concentration response of the positive control. Post incubation, the plates were washed 5× times with Dulbecco's phosphate buffered saline (DPBS), followed by the addition of the HRP substrate, luminol (50 μL), and measuring the HRP activity using luminescence readout on EnVision® Multilabel Plate Reader (Perkin Elmer; product number 2104-0010). The raw counts from the experiment are analyzed using Accelrys® Assay Explorer v3.3.
Z′ greater than 0.5 was used as passing quality control criteria for the plates.
The Z′ is defined as: 1−[3*SDPositive Control+3*SDNegative Control/Absolute(MeanPositive Control−MeanNegative Control)],
wherein “SD” is standard deviation.
The % activity measured at each of the 8 test concentrations of the test compound was normalized to the on-plate positive control using the following formula: % activity=[(test compound response−DMSO response)/(positive control response−DMSO response)]*100
The maximum % activity achieved for the test compound at any tested concentration is presented in Table 1 along with the EC50 calculated using the following general sigmoidal curve with variable Hill slope equation (described as Model 42 in the Accelrys® Assay Explorer v3.3 software): y=(a−d)/(1+(x/c)^b)+d General sigmoidal curve with concentration, response, top, bottom, EC50 and Hill slope.
This model describes a sigmoidal curve with an adjustable baseline, a. The equation can be used to fit curves where response is either increasing or decreasing with respect to the independent variable, “x”.
“x” is a concentration of drug under test.
“a” is the maximum response, and “d” is the minimum response
“c” is the inflection point (EC50) for the curve. That is, “y” is halfway between the lower and upper asymptotes when x=c.
“b” is the slope-factor or Hill coefficient. The sign of b is positive when the response increases with increasing dose and is negative when the response decreases with increasing dose (inhibition).

T1 sequence (P13569 with tags, fused parts or gaps DEL508-508): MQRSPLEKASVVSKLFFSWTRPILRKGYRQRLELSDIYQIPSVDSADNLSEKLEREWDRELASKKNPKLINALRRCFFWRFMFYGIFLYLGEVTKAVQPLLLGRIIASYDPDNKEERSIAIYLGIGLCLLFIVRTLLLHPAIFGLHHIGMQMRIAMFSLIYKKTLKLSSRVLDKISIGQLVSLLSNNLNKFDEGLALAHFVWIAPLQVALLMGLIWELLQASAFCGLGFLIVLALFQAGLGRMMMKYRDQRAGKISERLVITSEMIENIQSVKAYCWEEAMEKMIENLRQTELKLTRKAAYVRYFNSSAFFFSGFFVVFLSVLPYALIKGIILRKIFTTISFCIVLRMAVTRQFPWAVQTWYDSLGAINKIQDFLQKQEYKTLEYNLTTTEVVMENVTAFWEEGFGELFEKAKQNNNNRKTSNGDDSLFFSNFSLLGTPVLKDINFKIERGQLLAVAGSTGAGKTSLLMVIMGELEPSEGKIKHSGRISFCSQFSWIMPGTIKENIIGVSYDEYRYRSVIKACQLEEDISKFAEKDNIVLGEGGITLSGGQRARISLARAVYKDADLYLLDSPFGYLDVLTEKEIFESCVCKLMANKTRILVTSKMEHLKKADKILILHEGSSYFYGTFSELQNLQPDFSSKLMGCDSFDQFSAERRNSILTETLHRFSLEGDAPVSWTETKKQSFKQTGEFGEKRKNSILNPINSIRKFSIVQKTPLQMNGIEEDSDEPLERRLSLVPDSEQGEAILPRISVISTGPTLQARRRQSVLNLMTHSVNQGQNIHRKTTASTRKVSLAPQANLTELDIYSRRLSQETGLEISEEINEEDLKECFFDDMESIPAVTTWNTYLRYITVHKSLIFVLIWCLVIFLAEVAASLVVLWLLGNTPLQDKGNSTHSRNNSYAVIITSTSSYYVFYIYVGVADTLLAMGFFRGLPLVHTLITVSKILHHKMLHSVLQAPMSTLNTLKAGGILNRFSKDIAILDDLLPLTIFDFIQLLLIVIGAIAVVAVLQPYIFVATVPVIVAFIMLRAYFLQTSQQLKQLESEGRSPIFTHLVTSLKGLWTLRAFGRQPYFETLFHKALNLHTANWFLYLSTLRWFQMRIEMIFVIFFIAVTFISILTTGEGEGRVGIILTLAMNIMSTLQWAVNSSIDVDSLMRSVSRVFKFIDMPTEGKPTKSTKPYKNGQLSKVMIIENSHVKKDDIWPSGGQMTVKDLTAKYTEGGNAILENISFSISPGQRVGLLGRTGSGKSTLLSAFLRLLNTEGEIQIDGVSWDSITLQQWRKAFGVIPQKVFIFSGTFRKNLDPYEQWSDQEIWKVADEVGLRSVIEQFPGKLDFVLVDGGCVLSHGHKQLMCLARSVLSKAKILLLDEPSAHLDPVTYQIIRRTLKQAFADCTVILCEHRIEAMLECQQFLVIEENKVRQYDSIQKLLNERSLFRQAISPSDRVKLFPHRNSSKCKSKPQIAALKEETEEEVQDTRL

What is called EC50 is the concentration needed to bring the measured effect to its halfway point. A low value points to an effect from little substance. For the molecule `COC(=O)c1ccc([C@H]2C[C@@H](NC(=O)C3(c4ccc5c(c4)OC(F)(F)O5)CC3)CCO2)c(C)c1` (single isomer, unassigned) [Example 41], the half-maximal effective concentration (EC50) was found to be 410 nM and the Maximum % activity turned out to be 104%.
`COc1cccc([C@@H]2C[C@H](NC(=O)C3(c4ccc5c(c4)OC(F)(F)O5)CC3)C[C@H](c3cccc(C(=O)O)c3)O2)c1` (racemic) [Example 69, rac-3-[(2R,4R,6S)-4-({[1-(2,2-difluoro-1,3-benzodioxol-5-yl)cyclopropyl]carbonyl}amino)-6-(3-methoxyphenyl)tetrahydro-2H-pyran-2-yl]benzoic acid]: the EC50 was determined as 420 nM and the Maximum % activity was 85%.
The matching figures for `O=C(O)c1ccc([C@@H]2C[C@H](NC(=O)C3(c4ccc5c(c4)OC(F)(F)O5)CC3)CCO2)cc1` [Example 30, 4-[(2S,4R)-4-({[1-(2,2-difluoro-1,3-benzodioxol-5-yl)cyclopropyl]carbonyl}amino)tetrahydro-2H-pyran-2-yl]benzoic acid]: 9570 nM and 26%.
With `C[C@@H]1C[C@H](NC(=O)C2(c3ccc4c(c3)OC(F)(F)O4)CC2)C[C@H](c2ccc(C(=O)O)cc2)O1` (single isomer, unassigned) [Example 59], the EC50 is 980 nM and the Maximum % activity was found to be 90%.
As to `O=C(O)c1ccc([C@H]2C[C@@H](NC(=O)C3(c4ccc5c(c4)OC(F)(F)O5)CC3)C[C@@H](c3ccccc3)O2)cc1` (racemic) [Example 50, rac-4-[(2R,4S,6S)-4-({[1-(2,2-difluoro-1,3-benzodioxol-5-yl)cyclopropyl]carbonyl}amino)-6-phenyltetrahydro-2H-pyran-2-yl]benzoic acid], a half-maximal response (EC50) required 520 nM and the Maximum % activity is 92%.
The matching figures for `CC(C)(O)c1cccc([C@H]2C[C@@H](NC(=O)C3(c4ccc5c(c4)OC(F)(F)O5)CC3)CCO2)c1` (racemic) [Example 10, rac-1-(2,2-difluoro-1,3-benzodioxol-5-yl)-N-{(2R,4S)-2-[3-(2-hydroxypropan-2-yl)phenyl]tetrahydro-2H-pyran-4-yl}cyclopropanecarboxamide]: 2090 nM and 58%.
Turning to `Cc1cc(C(=O)O)ccc1[C@H]1C[C@H](NC(=O)C2(c3ccc4c(c3)OC(F)(F)O4)CC2)C[C@@H](c2ccccc2)O1` (racemic) [Example 64, rac-4-[(2R,4R,6S)-4-({[1-(2,2-difluoro-1,3-benzodioxol-5-yl)cyclopropyl]carbonyl}amino)-6-phenyltetrahydro-2H-pyran-2-yl]-3-methylbenzoic acid], it took 2400 nM to reach a half-maximal effect (EC50). For the same molecule, the Maximum % activity (3 µM) came out at 53%.
For `COC(=O)c1ccc([C@@H]2C[C@@H](NC(=O)C3(c4ccc5c(c4)OC(F)(F)O5)CC3)C[C@H](c3ccc(C(=O)OC)cc3)O2)cc1` [Example 52, dimethyl rac-4,4′-[(2R,4r,6S)-4-({[1-(2,2-difluoro-1,3-benzodioxol-5-yl)cyclopropyl]carbonyl}amino)tetrahydro-2H-pyran-2,6-diyl]dibenzoate], the 50% effective concentration (EC50) turned out to be 1800 nM and the Maximum % activity was 70%.
For `Cc1ccc(C(=O)O)cc1[C@H]1C[C@@H](NC(=O)C2(c3ccc4c(c3)OC(F)(F)O4)CC2)C[C@@H](c2ccccc2)O1` (racemic) [Example 70, rac-3-[(2R,4S,6S)-4-({[1-(2,2-difluoro-1,3-benzodioxol-5-yl)cyclopropyl]carbonyl}amino)-6-phenyltetrahydro-2H-pyran-2-yl]-4-methylbenzoic acid], in that order: 910 nM and 92%.
For `COc1ccc([C@@H]2C[C@H](NC(=O)C3(c4ccc5c(c4)OC(F)(F)O5)CC3)C[C@H](c3ccc(C(=O)O)cc3)O2)cc1` (single isomer, unassigned) [Example 66], in that order: 320 nM and 79%.
On to `O=C(O)c1ccc([C@@H]2C[C@H](NC(=O)C3(c4ccc5c(c4)OC(F)(F)O5)CC3)C[C@H](c3ccccc3)O2)cc1` (single isomer, unassigned) [Example 54], for which the midpoint of the response, the EC50, lay at 1710 nM and the Maximum % activity stood at 71%.
The matching figures for `COC(=O)c1ccc([C@H]2C[C@@H](NC(=O)C3(c4ccc5c(c4)OC(F)(F)O5)CC3)C[C@@H](c3ccccc3)O2)c(C)c1` (racemic) [Example 62, methyl rac-4-[(2R,4S,6S)-4-({[1-(2,2-difluoro-1,3-benzodioxol-5-yl)cyclopropyl]carbonyl}amino)-6-phenyltetrahydro-2H-pyran-2-yl]-3-methylbenzoate]: 880 nM and 111%.
The matching figures for `C[C@H]1C[C@@H](NC(=O)C2(c3ccc4c(c3)OC(F)(F)O4)CC2)C[C@@H](c2ccc(C(=O)O)cc2)O1` (single isomer, unassigned) [Example 58]: 7370 nM and 63%.
The matching figures for `COC(=O)c1ccc([C@H]2C[C@@H](NC(=O)C3(c4ccc5c(c4)OC(F)(F)O5)CC3)C[C@@H](C)O2)cc1` (racemic) [Example 39, methyl rac-4-[(2R,4S,6R)-4-({[1-(2,2-difluoro-1,3-benzodioxol-5-yl)cyclopropyl]carbonyl}amino)-6-methyltetrahydro-2H-pyran-2-yl]benzoate]: 1640 nM and 90%.
Turning to `O=C(N[C@@H]1CCO[C@@H](c2cccc(CO)c2)C1)C1(c2ccc3c(c2)OC(F)(F)O3)CC1` (racemic) [Example 6, rac-1-(2,2-difluoro-1,3-benzodioxol-5-yl)-N-{(2R,4R)-2-[3-(hydroxymethyl)phenyl]tetrahydro-2H-pyran-4-yl}cyclopropanecarboxamide], the EC50 worked out at 5150 nM and the Maximum % activity stood at 32%.
For `CC(=O)c1cccc([C@H]2C[C@@H](NC(=O)C3(c4ccc5c(c4)OC(F)(F)O5)CC3)CCO2)c1` (racemic) [Example 8, rac-N-[(2R,4S)-2-(3-acetylphenyl)tetrahydro-2H-pyran-4-yl]-1-(2,2-difluoro-1,3-benzodioxol-5-yl)cyclopropanecarboxamide], in that order: 1390 nM and 57%.
`COC(=O)c1ccc([C@H]2C[C@@H](NC(=O)C3(c4ccc5c(c4)OC(F)(F)O5)CC3)CCO2)cc1` [Example 29, methyl 4-[(2R,4S)-4-({[1-(2,2-difluoro-1,3-benzodioxol-5-yl)cyclopropyl]carbonyl}amino)tetrahydro-2H-pyran-2-yl]benzoate]: the EC50 came out at 1050 nM and the Maximum % activity is on record as 107%.
For `CC1(C)C[C@@H](NC(=O)C2(c3ccc4c(c3)OC(F)(F)O4)CC2)C[C@H](c2ccc(C(=O)O)cc2)O1` (racemic) [Example 33, rac-4-[(2R,4S)-4-({[1-(2,2-difluoro-1,3-benzodioxol-5-yl)cyclopropyl]carbonyl}amino)-6,6-dimethyltetrahydro-2H-pyran-2-yl]benzoic acid], in that order: 3890 nM and 102%.
The matching figures for `O=C(O)c1cccc([C@H]2C[C@H](NC(=O)C3(c4ccc5c(c4)OC(F)(F)O5)CC3)C[C@@H](c3ccccc3)O2)c1` (racemic) [Example 25, rac-3-[(2R,4R,6S)-4-({[1-(2,2-difluoro-1,3-benzodioxol-5-yl)cyclopropyl]carbonyl}amino)-6-phenyltetrahydro-2H-pyran-2-yl]benzoic acid]: 2020 nM and 108%.
